Tests used:
[1] = molecular target: T1, FL hMALT1 enzyme (Homo sapiens, UniProt Q9UDY8); assay: biochemical;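 note: Cell-free protease assay: enzyme preincubated with compound 30 min at room temperature, then cleavage of fluorogenic Ac-LVSR-AMC substrate (100 µM) tracked by fluorescence (ex 360/em 460 nm)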
T1 sequence (Q9UDY8 1-824): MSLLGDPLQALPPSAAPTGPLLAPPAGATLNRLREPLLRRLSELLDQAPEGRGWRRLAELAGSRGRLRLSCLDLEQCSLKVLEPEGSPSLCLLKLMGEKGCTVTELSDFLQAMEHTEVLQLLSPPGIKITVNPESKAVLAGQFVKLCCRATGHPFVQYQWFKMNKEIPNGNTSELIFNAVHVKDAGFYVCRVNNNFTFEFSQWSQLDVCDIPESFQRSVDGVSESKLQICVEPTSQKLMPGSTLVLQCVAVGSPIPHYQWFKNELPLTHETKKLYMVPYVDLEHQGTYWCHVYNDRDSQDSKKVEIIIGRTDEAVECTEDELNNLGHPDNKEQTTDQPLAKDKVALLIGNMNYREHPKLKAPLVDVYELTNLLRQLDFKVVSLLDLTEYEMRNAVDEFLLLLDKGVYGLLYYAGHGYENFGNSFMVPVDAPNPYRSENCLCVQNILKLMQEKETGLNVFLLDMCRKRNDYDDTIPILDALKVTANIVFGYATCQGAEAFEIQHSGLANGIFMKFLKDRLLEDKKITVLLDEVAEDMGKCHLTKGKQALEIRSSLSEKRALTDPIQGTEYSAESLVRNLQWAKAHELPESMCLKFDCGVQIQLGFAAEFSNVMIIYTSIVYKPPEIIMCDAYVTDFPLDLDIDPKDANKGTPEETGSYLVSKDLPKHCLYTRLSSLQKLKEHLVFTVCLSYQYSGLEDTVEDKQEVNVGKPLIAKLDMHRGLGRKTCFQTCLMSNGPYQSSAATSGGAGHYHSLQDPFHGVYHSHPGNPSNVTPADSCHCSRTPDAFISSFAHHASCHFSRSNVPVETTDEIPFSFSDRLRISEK

[2] = test system: IL-2 release from stimulated Jurkat cells; assay: Human IL-2 Release Phenotypic Assay (Assay 3); assay type: cell-based; details: Jurkat cells (clone E6-1), 200 ng/mL PMA + 300 ng/mL ionomycin, IL-2 by ELISA
Outline: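 Jurkat E6-1 cells in RPMI1640/10% FBS were seeded at 50 000 cells/well and incubated overnight at 37° C. Half-log compound dilutions (0.5% final DMSO) were added for 30 min, then cells were stimulated with 200 ng/mL PMA + 300 ng/mL ionomycin for 48 h. IC50 came from a 4-parameter non-linear regression fit.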

[3] = molecular target: MALT1-GS-Ub (6-His-hMALT-1 residues 339-715 fused to ubiquitin) (Homo sapiens, UniProt Q9UDY8); assay: biochemical;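 note: in vitro MALT1 protease assay: enzyme preincubated with compound 30 min at room temperature, then cleavage of fluorogenic Ac-LVSR-AMC substrate (100 µM) followed by fluorescence every 15 min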
Sequence of MALT1-GS-Ub (6-His-hMALT-1 residues 339-715 fused to ubiquitin) (Q9UDY8 with tags, fused parts or gaps limits assumed): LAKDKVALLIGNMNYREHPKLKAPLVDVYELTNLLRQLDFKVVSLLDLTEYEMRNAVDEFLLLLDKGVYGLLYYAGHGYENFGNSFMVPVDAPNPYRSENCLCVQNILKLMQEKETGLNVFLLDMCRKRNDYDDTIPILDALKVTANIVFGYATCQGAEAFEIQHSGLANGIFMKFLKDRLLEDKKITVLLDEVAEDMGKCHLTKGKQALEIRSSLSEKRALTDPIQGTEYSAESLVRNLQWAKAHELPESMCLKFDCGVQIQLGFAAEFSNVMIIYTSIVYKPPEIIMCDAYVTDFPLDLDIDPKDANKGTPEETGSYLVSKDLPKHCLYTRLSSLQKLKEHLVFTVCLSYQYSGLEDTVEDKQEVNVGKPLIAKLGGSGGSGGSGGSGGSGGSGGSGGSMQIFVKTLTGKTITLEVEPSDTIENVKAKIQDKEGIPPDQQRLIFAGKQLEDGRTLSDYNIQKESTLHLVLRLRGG

SMILES | IC50 [1] | IC50 ([2]; Homo sapiens, Jurkat, 48 h) | IC50 [3] | IC50 ([2]; 48 hours)
CC1c2ccccc2CC1Nc1ccc(C(N(C)C(=O)C2CCS(=O)(=O)CC2)C(F)(F)F)cc1 (mixture of isomers) [Example 8, N-Methyl-N—((S)-2,2,2-trifluoro-1-(4-(((1,2-cis)-1-methyl-2,3-dihydro-1H-inden-2-yl)amino)phenyl)ethyl)tetrahydro-2H-thiopyran-4-carboxamide 1,1-dioxide] | 0.039 µM | 0.15 µM | 0.2 µM | 
CN(C(=O)C1CCS(=O)(=O)CC1)[C@@H](c1ccc(NC2Cc3ccccc3C2(C)C)cc1)C(F)(F)F (single isomer, unassigned) [Example 1] | 0.007 µM | 0.43 µM | 0.14 µM | 
CN(C(=O)c1cnco1)[C@@H](c1ccc(NC2Cc3ccccc3C2(C)C)cc1)C(F)(F)F (single isomer, unassigned) [Example 5] | 0.25 µM |  | 0.14 µM | 2.25 µM
CC(=O)N1CC(C(=O)N(C)[C@@H](c2ccc(NC3Cc4ccccc4C3(C)C)cc2)C(F)(F)F)C1 (single isomer, unassigned) [Example 6] | 0.016 µM |  | 0.15 µM | 0.32 µM
CC(=O)N1CC(C(=O)N(C)[C@@H](c2ccc(NC3Cc4ccccc4C3(C)C)cc2)C(F)(F)F)C1 (single isomer, unassigned) [Example 7] | 0.068 µM |  | 0.19 µM | 0.82 µM
COC1c2ccccc2CC1Nc1ccc([C@H](N(C)C(=O)C2CCS(=O)(=O)CC2)C(F)(F)F)cc1 (single isomer, unassigned) [Example 10] | 0.12 µM | 1.55 µM | 0.54 µM | 
CN(C(=O)N1CCOCC1)[C@@H](c1ccc(N[C@H]2Cc3ccccc3C2(C)C)cc1)C(F)(F)F (single isomer, unassigned) [Example 12] | 0.29 µM | 0.49 µM | 0.18 µM | 
CN(C(=O)N1CCOCC1)[C@@H](c1ccc(N[C@@H]2Cc3ccccc3C2(C)C)cc1)C(F)(F)F (single isomer, unassigned) [Example 13] | 0.4 µM | 1.93 µM | 0.4 µM | 
CN(C(=O)N1CCS(=O)(=O)CC1)[C@@H](c1ccc(NC2Cc3ccccc3C2(C)C)cc1)C(F)(F)F (single isomer, unassigned) [Example 14] | 0.11 µM |  | 0.22 µM | 0.32 µM
CN(C(=O)N1CCS(=O)(=O)CC1)[C@@H](c1ccc(NC2Cc3ccccc3C2(C)C)cc1)C(F)(F)F (single isomer, unassigned) [Example 15] | 0.42 µM |  | 0.29 µM | 3.1 µM
CN(C(=O)CCCC(=O)O)[C@@H](c1ccc(NC2Cc3ccccc3C2(C)C)cc1)C(F)(F)F (single isomer, unassigned) [Example 50] |  |  | 0.12 µM | 2.94 µM

Second part, the compound after the results:

IC50 [1] | IC50 ([2]; Homo sapiens, Jurkat, 48 h) | IC50 [3] | IC50 ([2]; 48 hours) | SMILES
 | 9.51 µM | 0.26 µM |  | CN(C(=O)CCC(=O)O)[C@@H](c1ccc(NC2Cc3ccccc3C2(C)C)cc1)C(F)(F)F (single isomer, unassigned) [Example 52]
 |  | 0.17 µM | 7.29 µM | CN(C(=O)CCC(=O)O)[C@@H](c1ccc(NC2Cc3ccccc3C2(C)C)cc1)C(F)(F)F (single isomer, unassigned) [Example 53]
 | 2.11 µM | 0.33 µM |  | COc1ccc2c(c1)CC(Nc1ccc([C@H](N(C)C(=O)C3CCS(=O)(=O)CC3)C(F)(F)F)cc1)C2 (single isomer, unassigned) [Example 54]
 |  | 0.18 µM | 0.84 µM | CNS(=O)(=O)CCC(=O)N(C)[C@@H](c1ccc(NC2Cc3ccccc3C2(C)C)cc1)C(F)(F)F (single isomer, unassigned) [Example 61]
 |  | 0.17 µM | 2.12 µM | CNS(=O)(=O)CCC(=O)N(C)[C@@H](c1ccc(NC2Cc3ccccc3C2(C)C)cc1)C(F)(F)F (single isomer, unassigned) [Example 62]
 | 2.62 µM | 0.33 µM |  | CN(C(=O)C1CCS(=O)(=O)CC1)[C@@H](c1ccc(NC2Cc3ccccc3C2)cn1)C(F)(F)F (single isomer, unassigned) [Example 71]

From US20260184687A1, “DIHYDROINDENE DERIVATIVES AS MALT1 INHIBITORS” (C4X Discovery Limited, priority 2022, published 2026)
